Activity calls are given as the source filed them. The rule behind the calls is not given here.
How the values were obtained:
[1] = system: Protein cereblon/Receptor-type tyrosine-protein kinase FLT3 (Homo sapiens), P36888+Q96SW2 [UNDEFINED MUTATION]; assay: PROTAC activity at CRBN/FLT3-ITD mutant in human MV4-11 cells assessed as protein degradation incubated for 12 hrs by Western blot analysis; type: cell-based; conditions: dose <= 20.0 nM
[2] = molecular target: Protein cereblon/Receptor-type tyrosine-protein kinase FLT3 (Homo sapiens, UniProt P36888+Q96SW2); assay: PROTAC activity at CRBN/FLT3-ITD mutant in human MOLM-13 cells assessed as protein degradation by Western blot analysis; type: cell-based
Sequence of Protein cereblon/Receptor-type tyrosine-protein kinase FLT3 (P36888 whole entry, looked up, change not shown): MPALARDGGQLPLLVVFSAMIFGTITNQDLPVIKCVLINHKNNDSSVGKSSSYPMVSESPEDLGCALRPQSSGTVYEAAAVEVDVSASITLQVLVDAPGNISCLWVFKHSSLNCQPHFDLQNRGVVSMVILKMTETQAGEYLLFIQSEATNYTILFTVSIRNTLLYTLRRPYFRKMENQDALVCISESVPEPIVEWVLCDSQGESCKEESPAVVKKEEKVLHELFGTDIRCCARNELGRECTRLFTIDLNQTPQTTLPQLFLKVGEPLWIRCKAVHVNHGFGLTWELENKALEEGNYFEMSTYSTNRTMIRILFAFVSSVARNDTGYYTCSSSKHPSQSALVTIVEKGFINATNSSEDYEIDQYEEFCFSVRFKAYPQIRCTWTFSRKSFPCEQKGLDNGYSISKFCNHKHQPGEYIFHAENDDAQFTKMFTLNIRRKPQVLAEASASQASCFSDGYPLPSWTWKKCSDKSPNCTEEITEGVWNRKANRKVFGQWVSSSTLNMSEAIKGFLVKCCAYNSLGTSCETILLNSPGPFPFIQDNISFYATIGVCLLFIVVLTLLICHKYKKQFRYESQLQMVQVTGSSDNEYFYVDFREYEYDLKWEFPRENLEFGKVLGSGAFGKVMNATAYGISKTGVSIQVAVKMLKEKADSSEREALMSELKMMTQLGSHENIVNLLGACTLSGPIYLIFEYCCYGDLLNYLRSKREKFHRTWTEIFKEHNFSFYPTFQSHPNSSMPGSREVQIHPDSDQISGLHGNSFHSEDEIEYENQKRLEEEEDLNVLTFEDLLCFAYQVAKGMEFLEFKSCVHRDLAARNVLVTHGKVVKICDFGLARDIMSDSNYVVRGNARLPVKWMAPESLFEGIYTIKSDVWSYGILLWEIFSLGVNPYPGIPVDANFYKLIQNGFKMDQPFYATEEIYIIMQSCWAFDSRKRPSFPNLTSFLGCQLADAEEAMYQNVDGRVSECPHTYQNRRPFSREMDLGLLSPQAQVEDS
Sequence of Protein cereblon/Receptor-type tyrosine-protein kinase FLT3 (Q96SW2 whole entry, looked up, change not shown): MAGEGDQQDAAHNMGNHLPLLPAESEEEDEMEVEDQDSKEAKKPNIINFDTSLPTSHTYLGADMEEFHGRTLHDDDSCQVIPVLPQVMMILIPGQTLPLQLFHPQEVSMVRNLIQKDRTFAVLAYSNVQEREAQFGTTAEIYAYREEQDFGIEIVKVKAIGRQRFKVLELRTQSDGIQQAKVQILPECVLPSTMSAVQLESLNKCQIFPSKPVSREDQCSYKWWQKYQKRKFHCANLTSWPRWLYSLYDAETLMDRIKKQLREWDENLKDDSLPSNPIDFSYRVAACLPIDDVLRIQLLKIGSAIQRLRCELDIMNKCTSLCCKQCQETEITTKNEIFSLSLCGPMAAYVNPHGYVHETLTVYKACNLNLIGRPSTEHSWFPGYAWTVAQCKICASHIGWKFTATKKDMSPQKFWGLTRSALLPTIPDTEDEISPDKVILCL

[3] = AUC (0 to t) in Sprague-Dawley rat at 1 mg/kg, iv measured for 24 hrs by LC-MS/MS analysis; type: ADME, organism-based; conditions: in vivo
MV4-11 [4] = assay: Antitumor activity against human MV4-11 cells xenografted in nu/nu mouse at 5 mg/kg, po administered daily for 2 weeks relative to control; type: functional; conditions: MV4-11, 336 h, read-out: TGI
[5] = system: Protein cereblon/Receptor-type tyrosine-protein kinase FLT3 (Homo sapiens), P36888+Q96SW2 [UNDEFINED MUTATION]; assay: PROTAC activity at CRBN/FLT3-ITD mutant in human MOLM-13 cells assessed as decrease in STAT5 level at 20 nM by Western blot analysis; type: cell-based; conditions: time <= 12.0 hrs, TDE = time-dependent effect
MOLM-13 [6] = assay: Antiproliferative activity against human MOLM-13 cells incubated for 48 hrs by CCK8 assay; type: functional, cell-based; conditions: MOLM-13, 48 h
[7] = Stability in monkey liver microsomes assessed as half life; type: ADME, Microsome; conditions: chlorocebus aethiops
MV4-11 [8] = assay: Induction of cell cycle arrest at G1 phase in human MV4-11 cells at 5 nM incubated for 24 hrs by PI/RNase staining based flow cytometry relative to control; type: functional
[9] = Toxicity in NSG mouse xenografted with human MV4-11 cells expressing luciferase assessed as obvious adverse response at 1.25 to 10 mg/kg, po administered daily for 3 weeks; type: organism-based; conditions: in vivo, 504 h, dose 1.25-10 mg/kg
[10] = Clearance in Sprague-Dawley rat at 1 mg/kg, iv measured for 24 hrs by LC-MS/MS analysis; type: ADME, organism-based; conditions: in vivo
[11] = Antiproliferative activity against human U-937 cells expressing wild-type FLT3 incubated for 48 hrs by CCK8 assay; type: toxicity, cell-based
[12] = Antiproliferative activity against mouse Ba/F3 FLT3-ITD cells incubated for 48 hrs by CCK8 assay; type: functional, cell-based
Cytochrome P450 1A2 = molecular target: T1, Cytochrome P450 1A2 (Homo sapiens, UniProt P05177); assay: Inhibition of CYP1A2 (unknown origin); type: ADME
T1 sequence (P05177 whole entry): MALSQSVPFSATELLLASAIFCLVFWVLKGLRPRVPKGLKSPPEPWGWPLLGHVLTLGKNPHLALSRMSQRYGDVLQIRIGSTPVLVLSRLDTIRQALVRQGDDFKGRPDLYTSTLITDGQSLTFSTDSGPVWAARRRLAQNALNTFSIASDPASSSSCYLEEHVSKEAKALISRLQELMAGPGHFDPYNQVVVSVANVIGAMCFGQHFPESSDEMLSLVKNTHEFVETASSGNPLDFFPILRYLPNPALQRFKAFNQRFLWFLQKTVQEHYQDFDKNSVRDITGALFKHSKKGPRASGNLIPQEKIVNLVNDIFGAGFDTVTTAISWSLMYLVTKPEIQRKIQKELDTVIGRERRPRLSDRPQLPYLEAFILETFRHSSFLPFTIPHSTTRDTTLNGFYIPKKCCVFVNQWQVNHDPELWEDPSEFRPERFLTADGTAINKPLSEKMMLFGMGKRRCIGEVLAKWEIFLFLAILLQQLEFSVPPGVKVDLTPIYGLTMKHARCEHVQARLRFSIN

[13] = Stability in Sprague-Dawley rat plasma at 50 ug/ml incubated upto 8 hrs by LC-MS/MS analysis; type: ADME, cell-free; conditions: at 50 µg/mL
[14] = system: Protein cereblon/Receptor-type tyrosine-protein kinase FLT3 (Homo sapiens), P36888+Q96SW2 [UNDEFINED MUTATION]; assay: PROTAC activity at CRBN/FLT3-ITD mutant in human MOLM-13 cells assessed as decrease in STAT5 level incubated for 12 hrs by Western blot analysis; type: cell-based; conditions: dose <= 20.0 nM
Cytochrome P450 2C19 = Cytochrome P450 2C19 (Homo sapiens, UniProt P33261); assay: Inhibition of CYP2C19 (unknown origin); type: ADME
Sequence of Cytochrome P450 2C19 (P33261 whole entry): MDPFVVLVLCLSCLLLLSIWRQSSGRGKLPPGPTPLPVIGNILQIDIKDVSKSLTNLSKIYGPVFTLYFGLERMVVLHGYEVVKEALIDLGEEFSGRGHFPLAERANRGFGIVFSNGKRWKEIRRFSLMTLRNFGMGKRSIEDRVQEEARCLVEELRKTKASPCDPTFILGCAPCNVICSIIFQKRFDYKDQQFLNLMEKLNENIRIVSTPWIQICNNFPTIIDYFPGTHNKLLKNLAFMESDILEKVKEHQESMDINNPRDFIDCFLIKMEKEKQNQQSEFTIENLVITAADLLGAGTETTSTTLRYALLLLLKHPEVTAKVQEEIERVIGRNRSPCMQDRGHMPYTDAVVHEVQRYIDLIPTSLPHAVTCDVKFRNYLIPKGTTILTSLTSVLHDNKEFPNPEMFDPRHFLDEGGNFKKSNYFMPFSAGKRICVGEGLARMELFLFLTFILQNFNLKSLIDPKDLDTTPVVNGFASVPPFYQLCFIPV

Cytochrome P450 2C9 = Cytochrome P450 2C9 (Homo sapiens, UniProt P11712); assay: Inhibition of CYP2C9 (unknown origin); type: ADME
Sequence of Cytochrome P450 2C9 (P11712 whole entry): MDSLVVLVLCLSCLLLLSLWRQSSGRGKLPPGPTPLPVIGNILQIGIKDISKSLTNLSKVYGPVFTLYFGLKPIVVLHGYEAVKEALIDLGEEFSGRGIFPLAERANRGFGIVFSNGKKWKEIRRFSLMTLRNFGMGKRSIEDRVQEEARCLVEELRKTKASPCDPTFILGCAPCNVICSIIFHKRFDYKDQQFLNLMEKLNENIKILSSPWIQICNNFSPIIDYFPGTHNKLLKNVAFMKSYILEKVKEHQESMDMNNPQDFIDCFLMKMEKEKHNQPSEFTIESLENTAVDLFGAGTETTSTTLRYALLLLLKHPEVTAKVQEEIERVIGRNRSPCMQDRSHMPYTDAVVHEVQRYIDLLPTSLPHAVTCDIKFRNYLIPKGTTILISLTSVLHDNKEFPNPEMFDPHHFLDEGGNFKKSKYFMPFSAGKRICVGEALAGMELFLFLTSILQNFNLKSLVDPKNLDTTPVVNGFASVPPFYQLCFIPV

MV4-11 [15] = assay: Antitumor activity against human MV4-11 cells xenografted in nu/nu mouse at 10 mg/kg, po administered daily for 2 weeks relative to control; type: functional; conditions: MV4-11, 336 h, read-out: TGI
MV4-11 [16] = assay: Antitumor activity against human MV4-11 cells expressing luciferase xenografted in NSG mouse assessed as increase in animal survival at 5 mg/kg, po administered daily for 3 weeks and measured for 66 days; type: functional, organism-based; conditions: time 66.0 day
[17] = system: Protein cereblon/Receptor-type tyrosine-protein kinase FLT3 (Homo sapiens), P36888+Q96SW2 [UNDEFINED MUTATION]; assay: PROTAC activity at CRBN/FLT3-ITD mutant in human MV4-11 cells assessed as protein degradation at 100 nM incubated for 8 hrs in presence of bortezomib by Western blot analysis; type: cell-based
BaF3 = assay: Antiproliferative activity against mouse Ba/F3 cells expressing FLT3-ITD Y842H mutant incubated for 48 hrs by CCK8 assay; type: functional, cell-based; conditions: BaF3, 48 h
MV4-11 [18] = assay: Induction of cell cycle arrest at G1 phase in human MV4-11 cells at 50 nM incubated for 24 hrs by PI/RNase staining based flow cytometry relative to control; type: functional
MV4-11 [19] = assay: Antitumor activity against human MV4-11 cells xenografted in nu/nu mouse at 1.25 mg/kg, po administered daily for 2 weeks relative to control; type: functional; conditions: MV4-11, 336 h, read-out: TGI
[20] = Toxicity in nu/nu mouse xenografted with human MV4-11 cells assessed as damage in heart at 1.25 to 10 mg/kg, po administered daily for 2 weeks by H and E staining based analysis; type: organism-based; conditions: in vivo, 336 h, dose 1.25-10 mg/kg
MV4-11 [21] = assay: Antitumor activity against human MV4-11 cells expressing luciferase xenografted in NSG mouse assessed as increase in animal survival at 10 mg/kg, po administered daily for 3 weeks and measured for 77 days; type: functional, organism-based; conditions: time 77.0 day
[22] = system: Protein cereblon/Receptor-type tyrosine-protein kinase FLT3 (Homo sapiens), P36888+Q96SW2 [UNDEFINED MUTATION]; assay: PROTAC activity at CRBN/FLT3-ITD mutant in human MV4-11 cells assessed as decrease in STAT5 level at 20 nM by Western blot analysis; type: cell-based; conditions: time <= 12.0 hrs, TDE = time-dependent effect
Cytochrome P450 2D6 = Cytochrome P450 2D6 (Homo sapiens, UniProt P10635); assay: Inhibition of CYP2D6 (unknown origin); type: ADME
Sequence of Cytochrome P450 2D6 (P10635 whole entry): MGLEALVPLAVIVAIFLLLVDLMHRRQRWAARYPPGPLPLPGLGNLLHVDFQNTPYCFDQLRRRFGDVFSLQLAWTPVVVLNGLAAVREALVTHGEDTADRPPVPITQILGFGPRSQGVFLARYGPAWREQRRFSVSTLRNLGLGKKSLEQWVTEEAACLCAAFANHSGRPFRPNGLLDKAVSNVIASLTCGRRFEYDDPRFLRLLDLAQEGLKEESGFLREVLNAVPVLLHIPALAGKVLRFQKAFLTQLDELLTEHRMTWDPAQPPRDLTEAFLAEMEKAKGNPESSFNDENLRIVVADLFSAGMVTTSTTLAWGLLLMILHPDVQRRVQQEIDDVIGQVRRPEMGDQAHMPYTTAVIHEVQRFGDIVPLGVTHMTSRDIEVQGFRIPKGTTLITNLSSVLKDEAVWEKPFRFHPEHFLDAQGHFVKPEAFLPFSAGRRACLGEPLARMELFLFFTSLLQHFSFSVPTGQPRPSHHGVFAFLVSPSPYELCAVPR

[23] = Stability in monkey liver microsomes assessed as intrinsic clearance; type: ADME, Microsome; conditions: chlorocebus aethiops, read-out: CLH
[24] = Stability in human liver microsomes assessed as hepatic clearance; type: ADME, Microsome
MOLM-13 [25] = assay: Antiproliferative activity against Sunitinib-resistant human MOLM-13 cells incubated for 48 hrs by CCK8 assay; type: functional, cell-based; conditions: MOLM-13, 48 h
[26] = system: Protein cereblon/Receptor-type tyrosine-protein kinase FLT3 (Homo sapiens), P36888+Q96SW2 [UNDEFINED MUTATION]; assay: PROTAC activity at CRBN/FLT3-ITD mutant in human MV4-11 cells assessed as decrease in STAT5 level incubated for 12 hrs by Western blot analysis; type: cell-based; conditions: dose <= 20.0 nM
[27] = Clearance in Sprague-Dawley rat at 10 mg/kg, po measured for 24 hrs by LC-MS/MS analysis; type: ADME, organism-based; conditions: in vivo
MV4-11 [28] = assay: Induction of proapoptosis in human MV4-11 cells xenografted in nu/nu mouse assessed as increase in cleaved caspase-3 level at 1.25 to 10 mg/kg, po administered daily for 2 weeks; type: functional, organism-based; conditions: dose 1.25-10 mg/kg

Sequence of Protein cereblon/Receptor-type tyrosine-protein kinase FLT3 (Homo sapiens), P36888+Q96SW2 [UNDEFINED MUTATION] (P36888 whole entry, looked up, stated change not applied): as the sequence (P36888 whole entry, looked up, change not shown) above
Sequence of Protein cereblon/Receptor-type tyrosine-protein kinase FLT3 (Homo sapiens), P36888+Q96SW2 [UNDEFINED MUTATION] (Q96SW2 whole entry, looked up, stated change not applied): as the sequence (Q96SW2 whole entry, looked up, change not shown) above

Cc1c(NC(=O)CN2CCN(CC3CCN(c4ccc5c(c4)C(=O)N(C4CCC(=O)NC4=O)C5=O)CC3)CC2)c[nH]c1/C=C1\C(=O)Nc2ccc(F)cc21 (stereo not drawn)
Activity [1]: Dose-Dependent Effect | DC50 [2]: 20.1 nM | AUC(0-t) at 24 h [3]: 2770 ng·h/mL | inhibition in vivo at 5 mg/kg (MV4-11 [4]): 97.5% | Activity [5]: Tde | IC50 (MOLM-13 [6]): 170 nM | half-life [7]: 36.9 min | Activity (MV4-11 [8]): 85.5% | Activity [9]: Non-Toxic | clearance [10]: 3.5 mL/min/kg | IC50 at 48 h [11]: > 40000 nM | IC50 [12]: 17 nM | IC50 (Cytochrome P450 1A2): > 50000 nM | Stability [13]: Stable | Activity [14]: Dose-Dependent Effect | IC50 (Cytochrome P450 2C19): > 50000 nM | IC50 (Cytochrome P450 2C9): > 50000 nM | inhibition in vivo at 10 mg/kg (MV4-11 [15]): 100% | Activity (MV4-11 [16]): Active | Activity [17]: inactive | IC50 (BaF3): 46.7 nM | Activity (MV4-11 [18]): 89.2% | inhibition in vivo at 1.25 mg/kg (MV4-11 [19]): 51.4% | Activity [20]: Non-Toxic | Activity (MV4-11 [21]): Active | Activity [22]: Tde | IC50 (Cytochrome P450 2D6): > 50000 nM | CLint scaled [23]: 50.7 mL/min/kg | CLhep predicted [24]: 10.9 mL/min/kg | IC50 (MOLM-13 [25]): 147 nM | Activity [26]: Dose-Dependent Effect | CL/F [27]: 11.2 mL/min/kg | Activity (MV4-11 [28]): Active

— ChEMBL document CHEMBL5543162, “Discovery of a Novel Orally Bioavailable FLT3-PROTAC Degrader for Efficient Treatment of Acute Myeloid Leukemia and Overcoming Resistance of FLT3 Inhibitors” (J Med Chem, 2024)
